Patent publication US20080103205A1, “Pesticidal compositions and methods of use” (priority 2006, published 2008)
Several values for one entry are separate records, joined by “and”; a condition that tells them apart may be missing. Equal entries are not always repeated. Where two headings read alike, the source gives them in different places.

Legend:
Assay type in all cases: in vivo
[1] = test system: Meloidogyne incognita eggs; test: M. incognita egg hatching
Protocol: Meloidogyne incognita (plant parasitic nematode) eggs were collected from tomato plant roots and were suspended in water. The solution was either diluted or concentrated to adjust the egg load to about 5000/ml. AT stock solutions prepared in DMSO and 300 ul of test solution was placed in a well, along with 20 ul of aqueous solution containing eggs. The number of eggs in 20 ul solution ranged from 115 to 143 (n=10). Each treatment (2, 5, 10, 20, or 40 ppm) was replicated 5 times. Microplates were sealed with Parafilm™ and incubated at room temperature. Similar tests conducted with 0.2% DMSO alone served as controls. Egg hatching was monitored at 24, 72, 120, and 168 hr after incubation. Both moving and non-moving nematodes were counted to arrive at the number of eggs hatched. Proportion of egg hatch was calculated as the number of juveniles divided by total number of eggs.
VSCC blockers effect on M. incognita egg hatching is shown in the following tables where % hatched is rounded to the nearest percentage point and where “% C*” is % hatch, normalized to control.

Drosophila melanogaster = test: Toxicity against adult Drosophila melanogaster, sugar solution feeding
Protocol: Toxicity tests were conducted using mixed sex adults of D. melanogaster maintained on artificial diet in the department of entomology, Virginia Tech. Test concentrations of 6.25, 12.5, 25, 50 or 100 ppm were prepared in 0.2% dimethyl sulfoxide (DMSO) for DIDS, 9-AC, NPPB, and IAA-94. The above final concentrations were obtained after mixing them in 10 ml of 10% sugar solution. Similar preparations with 0.2% DMSO alone served as controls. One end of a cotton wick was dipped in 0.5 ml of sugar solution and placed on the glass vial containing 10 adult flies of mixed sex. Each concentration of test chemical had 5 replications. Mortality counts of flies were taken 24, 48, and 72 hrs after treatment. Insects without movement upon probing were considered dead. LC50 values and confidence intervals for each chemical were estimated using POLO PLUS software program. The data provided in Tables 3-A and 3-B below confirm that AT blockers are toxic to insects in acute exposures.

[2] = test system: European corn borer (Ostrinia nubilalis); test: Diet surface test on European corn borer larvae (2nd instar); settings: for mortality at 6.25 ppm / mortality at 12.5 ppm / mortality at 25 ppm / mortality at 50 ppm: Ostrinia nubilalis, read-out: % Mortality
Protocol: Concentrations of 6.25, 12.5, 25, or 50 ppm AT blocker were prepared in 95% ethyl alcohol (EtOH). 95% EtOH alone served as control. European corn borer (ECB) diet prepared from the powdered diet supplied by French Agricultural Research, Inc. Diet (1-2 ml) was poured into small cups and allowed to cool to room temperature. Test solution (100 ul) was placed onto the diet surface and allowed to evaporate the solvent. Each concentration of chemical had 2 sets of 10 cups each. One late 2nd instar larva was placed in each cup and covered with lid having perforations for aeration. Cups were placed in an incubator for 7 days at 25±1° C. and 70±5% RH. After seven days, the weight of each larva was taken and any mortality was recorded. Then, the surviving larvae were transferred to fresh diet cups holding sufficient diet (5-6 ml) without chemicals and incubated at 25±1° C. and 70±5% RH until pupation. Weights of larvae were taken 14 days after transferring to fresh diet (21 days after start of treatment). Finally, the number of days until pupation was recorded.
Anion transporters caused larval death and a reduction in weight gain within 7 days exposure. The effect persisted for 2 weeks time on untreated diet, but total time to pupation was relatively unaffected.

[3] = 6.25 ppm, 21 days after feeding
[4] = 12.5 ppm, 21 days after feeding
[5] = 50 ppm, 7 days after feeding, 10 larvae treated
[6] = 50 ppm, 21 days after feeding, 10 larvae treated

Compound: O=S(=O)(O)c1cc(N=C=S)ccc1/C=C/c1ccc(N=C=S)cc1S(=O)(=O)O [DIDS, trans-4,4′-diisothiocyanatostilbene-2,2′-disulfonic acid, reference compound]
- Eggs Hatched % ([1]; 2 ppm, 24 hr): 10%
- Eggs Hatched % C* (% hatch, normalized to control) ([1]; 2 ppm, 24 hr): 100%
- Eggs Hatched No. ([1]; 2 ppm, 24 hr): 66
- Eggs Hatched % ([1]; 2 ppm, 72 hr): 14%
- Eggs Hatched % C* (% hatch, normalized to control) ([1]; 2 ppm, 72 hr): 87%
- Eggs Hatched No. ([1]; 2 ppm, 72 hr): 95
- Eggs Hatched % ([1]; 2 ppm, 120 hr): 19%
- Eggs Hatched % C* (% hatch, normalized to control) ([1]; 2 ppm, 120 hr): 86%
- Eggs Hatched No. ([1]; 2 ppm, 120 hr): 128
- Eggs Hatched % ([1]; 2 ppm, 168 hr): 22%
- Eggs Hatched % C* (% hatch, normalized to control) ([1]; 2 ppm, 168 hr): 79%
- Eggs Hatched No. ([1]; 2 ppm, 168 hr): 162
- Eggs Hatched % ([1]; 5 ppm, 24 hr): 9%
- Eggs Hatched % C* (% hatch, normalized to control) ([1]; 5 ppm, 24 hr): 90%
- Eggs Hatched No. ([1]; 5 ppm, 24 hr): 62
- Eggs Hatched % ([1]; 5 ppm, 72 hr): 13%
- Eggs Hatched % C* (% hatch, normalized to control) ([1]; 5 ppm, 72 hr): 81%
- Eggs Hatched No. ([1]; 5 ppm, 72 hr): 91
- Eggs Hatched % ([1]; 5 ppm, 120 hr): 17%
- Eggs Hatched % C* (% hatch, normalized to control) ([1]; 5 ppm, 120 hr): 77%
- Eggs Hatched No. ([1]; 5 ppm, 120 hr): 129
- Eggs Hatched % ([1]; 5 ppm, 168 hr): 21%
- Eggs Hatched % C* (% hatch, normalized to control) ([1]; 5 ppm, 168 hr): 75%
- Eggs Hatched No. ([1]; 5 ppm, 168 hr): 159
- Eggs Hatched % ([1]; 10 ppm, 24 hr): 9%
- Eggs Hatched % C* (% hatch, normalized to control) ([1]; 10 ppm, 24 hr): 90%
- Eggs Hatched No. ([1]; 10 ppm, 24 hr): 60
- Eggs Hatched % ([1]; 10 ppm, 72 hr): 13%
- Eggs Hatched % C* (% hatch, normalized to control) ([1]; 10 ppm, 72 hr): 81%
- Eggs Hatched No. ([1]; 10 ppm, 72 hr): 83
- Eggs Hatched % ([1]; 10 ppm, 120 hr): 15%
- Eggs Hatched % C* (% hatch, normalized to control) ([1]; 10 ppm, 120 hr): 68%
- Eggs Hatched No. ([1]; 10 ppm, 120 hr): 103
- Eggs Hatched % ([1]; 10 ppm, 168 hr): 18%
- Eggs Hatched % C* (% hatch, normalized to control) ([1]; 10 ppm, 168 hr): 64%
- Eggs Hatched No. ([1]; 10 ppm, 168 hr): 136
- Eggs Hatched % ([1]; 20 ppm, 24 hr): 8%
- Eggs Hatched % C* (% hatch, normalized to control) ([1]; 20 ppm, 24 hr): 80%
- Eggs Hatched No. ([1]; 20 ppm, 24 hr): 51
- Eggs Hatched % ([1]; 20 ppm, 72 hr): 11%
- Eggs Hatched % C* (% hatch, normalized to control) ([1]; 20 ppm, 72 hr): 69%
- Eggs Hatched No. ([1]; 20 ppm, 72 hr): 64
- Eggs Hatched % ([1]; 20 ppm, 120 hr): 12%
- Eggs Hatched % C* (% hatch, normalized to control) ([1]; 20 ppm, 120 hr): 55%
- Eggs Hatched No. ([1]; 20 ppm, 120 hr): 79
- Eggs Hatched % ([1]; 20 ppm, 168 hr): 15%
- Eggs Hatched % C* (% hatch, normalized to control) ([1]; 20 ppm, 168 hr): 54%
- Eggs Hatched No. ([1]; 20 ppm, 168 hr): 99
- Eggs Hatched % ([1]; 40 ppm, 24 hr): 7%
- Eggs Hatched % C* (% hatch, normalized to control) ([1]; 40 ppm, 24 hr): 70%
- Eggs Hatched No. ([1]; 40 ppm, 24 hr): 48
- Eggs Hatched % ([1]; 40 ppm, 72 hr): 10%
- Eggs Hatched % C* (% hatch, normalized to control) ([1]; 40 ppm, 72 hr): 62%
- Eggs Hatched No. ([1]; 40 ppm, 72 hr): 55
- Eggs Hatched % ([1]; 40 ppm, 120 hr): 10%
- Eggs Hatched % C* (% hatch, normalized to control) ([1]; 40 ppm, 120 hr): 45%
- Eggs Hatched No. ([1]; 40 ppm, 120 hr): 63
- Eggs Hatched % ([1]; 40 ppm, 168 hr): 11%
- Eggs Hatched % C* (% hatch, normalized to control) ([1]; 40 ppm, 168 hr): 39%
- Eggs Hatched No. ([1]; 40 ppm, 168 hr): 75
- LC50 (ppm) (Drosophila melanogaster; 48 hr): 125.86 ppm
- LC50 (ppm) (Drosophila melanogaster; 72 hr): 72.82 ppm
- Days for pupation ([2]; 6.25 ppm): 24.6 days and 25.0 days
- % wt reduction to control ([2]; 6.25 ppm, 7 days after feeding): 12.76% and 9.12%
- Mean wt of survived larvae, mg ([2]; 6.25 ppm, 7 days after feeding): 41.56 (10) mg and 44.84 (10) mg
- No. dead ([2]; 6.25 ppm, 7 days after feeding, 10 larvae): 0
- % wt reduction to control [2, 3]: 5.69% and 7.74%
- Mean wt of survived larvae, mg [2, 3]: 156.66 (10) mg and 135.14 (10) mg
- No. dead ([2]; 6.25 ppm, 21 days after feeding, 10 larvae): 0
- Days for pupation ([2]; 12.5 ppm): 25.2 days and 25.8 days
- % wt reduction to control ([2]; 12.5 ppm, 7 days after feeding): 39.67% and 36.72%
- Mean wt of survived larvae, mg ([2]; 12.5 ppm, 7 days after feeding): 28.74 (10) mg and 31.22 (10) mg
- No. dead ([2]; 12.5 ppm, 7 days after feeding, 10 larvae): 0
- % wt reduction to control [2, 4]: 32.84% and 33.04%
- Mean wt of survived larvae, mg [2, 4]: 111.56 (10) mg and 98.08 (10) mg
- No. dead ([2]; 12.5 ppm, 21 days after feeding, 10 larvae): 0
- Days for pupation ([2]; 25 ppm): 27.25 days and 27.0 days
- % wt reduction to control ([2]; 25 ppm, 7 days after feeding): 66.06% and 65.00%
- Mean wt of survived larvae, mg ([2]; 25 ppm, 7 days after feeding): 16.17 (8) mg and 17.26 (6) mg
- No. dead ([2]; 25 ppm, 7 days after feeding, 10 larvae): 2 and 4
- % wt reduction to control ([2]; 25 ppm, 21 days after feeding): 70.08% and 70.62%
- Mean wt of survived larvae, mg ([2]; 25 ppm, 21 days after feeding): 49.70 (6) mg and 43.03 (6) mg
- No. dead ([2]; 25 ppm, 21 days after feeding, 10 larvae): 4
- Days for pupation ([2]; 50 ppm in (Hepes)): 24.6 days
- Mean wt of survived larvae, mg ([2]; 50 ppm in (Hepes), 7 days after feeding): 43.33 mg
- No. dead ([2]; 50 ppm in (Hepes), 7 days after feeding, 10 larvae): 0
- Mean wt of survived larvae, mg ([2]; 50 ppm in (Hepes), 21 days after feeding): 137.36 mg
- No. dead ([2]; 50 ppm in (Hepes), 21 days after feeding, 10 larvae): 0
- % wt reduction to control ([2]; 50 ppm, 7 days after feeding): 87.93% and 92.70%
- Mean wt of survived larvae ([2]; 50 ppm, 7 days after feeding): 43.33 mg
- Mean wt of survived larvae, mg ([2]; 50 ppm, 7 days after feeding): 5.75 (4) mg and 3.60 (1) mg
- No. dead ([2]; 50 ppm, 7 days after feeding, 10 larvae): 6 and 8
- # surviving [2, 5]: 10
- No. dead [2, 5]: 0
- % wt reduction to control ([2]; 50 ppm, 21 days after feeding): 0%
- Mean wt of survived larvae ([2]; 50 ppm, 21 days after feeding): 137.36 mg
- Mean wt of survived larvae, mg ([2]; 50 ppm, 21 days after feeding): 0 mg
- No. dead ([2]; 50 ppm, 21 days after feeding, 10 larvae): 10
- # surviving [2, 6]: 10
- No. dead [2, 6]: 0
- mortality at 6.25 ppm ([2]; 168 h, 6.25 ppm, 7 days after feeding): 0%
- mortality at 12.5 ppm ([2]; 168 h, 12.5 ppm, 7 days after feeding): 0%
- mortality at 25 ppm ([2]; 168 h, 25 ppm, 7 days after feeding): 20%
- mortality at 50 ppm ([2]; 168 h, 50 ppm in (Hepes), 7 days after feeding): 0%
- mortality at 6.25 ppm ([2]; 504 h, 6.25 ppm, 21 days after feeding): 0%
- mortality at 12.5 ppm ([2]; 504 h, 12.5 ppm, 21 days after feeding): 0%
- mortality at 25 ppm ([2]; 504 h, 25 ppm, 21 days after feeding): 40%
- mortality at 50 ppm ([2]; 504 h, 50 ppm in (Hepes), 21 days after feeding): 0%
